Test results published in ChEMBL document CHEMBL3425465, “Synthesis, antimalarial and antitubercular activities of meridianin derivatives” (Eur J Med Chem, 2015).
In brackets after ≈: the same amount, converted by molar mass.

Tests used:
Type in all cases: functional
[1] = system: Mycobacterium tuberculosis; test: Antitubercular activity against Rifampicin-resistant Mycobacterium tuberculosis assessed as parasite growth inhibition by REMA method
[2] = system: Mycobacterium tuberculosis; test: Antitubercular activity against Isoniazid-resistant Mycobacterium tuberculosis assessed as parasite growth inhibition by REMA method
[3] = system: Mycobacterium tuberculosis; test: Antitubercular activity against multidrug-resistant Mycobacterium tuberculosis assessed as parasite growth inhibition by REMA method
[4] = system: Mycobacterium tuberculosis; test: Ratio of isoniazid IC50 to compound IC50 for Isoniazid-resistant Mycobacterium tuberculosis by REMA method

Compound	MIC90 [1] [µM]	MIC90 [2] [µM]	MIC90 [3] [µM]	Ratio [4]
O=C1NC(c2c[nH]c3ccc(Br)cc23)Nc2ccccc21 (stereo not drawn)	46.9 (≈ 16 µg/mL)	46.9 (≈ 16 µg/mL)	188 (≈ 64.2 µg/mL)	–
O=C1NC(c2c[nH]c3ccc(I)cc23)Nc2ccccc21 (stereo not drawn)	5.2 (≈ 2.02 µg/mL)	10.3 (≈ 4.01 µg/mL)	20.7 (≈ 8.06 µg/mL)	>12
CC[C@@H](CO)NCCN[C@@H](CC)CO [ETHAMBUTOL]	–	–	626 (≈ 128 µg/mL)	–
NNC(=O)c1ccncc1 [ISONIAZID]	–	467 (≈ 64.1 µg/mL)	117 (≈ 16 µg/mL)	–
CO[C@H]1/C=C/O[C@@]2(C)Oc3c(C)c(O)c4c(O)c(c(/C=N/N5CCN(C)CC5)c(O)c4c3C2=O)NC(=O)/C(C)=C\C=C\[C@H](C)[C@H](O)[C@@H](C)[C@@H](O)[C@@H](C)[C@H](OC(C)=O)[C@@H]1C [RIFAMPIN]	311 (≈ 256 µg/mL)	0.07 (≈ 0.0576 µg/mL)	38.9 (≈ 32 µg/mL)	–
